Results published in patent US7737180B2, “Use of neboglamine (CR 2249) as an antipsychotic and neuroprotective” (Rottapharm S.p.A., priority 2004, dated 2010).
Marks after values point to notes of the source that are not given here.

Key:
[1] = test system: PCP-induced inhibition of the acoustic prestimulus (PPI); assay: Reversion of PCP-induced inhibition of the acoustic prestimulus (PPI) in the rat; assay type: in vivo
Excerpt: The first model used was the study of PCP-induced inhibition of the acoustic prestimulus (PPI) in the rat.
This phenomenon is known as “pre-pulse inhibition” (PPI). […] Such a deficit may be reproduced experimentally with drugs which induce psychotic phenomena, such dopamine agonists and NMDA antagonists.
The method is based on that reported by Swerdlow et al. [J. Pharmacol. Exp. Ther. 256 530-536 (1991)] with slight modifications. An acrylic cylinder is used which is equipped with a piezoelectric sensor mounted under the cylinder which detects and transduces movements of the cylinder. A background noise of 60 dB is provided and subsequently two acoustic stimuli separated by 500 ms, the first of which is 20 dB above the background noise, while the second (startle stimulus) is 120 dB for a duration of 40 ms. The session of 30 trials at 30 second intervals with an overall duration of approx. 15 minutes involved subjecting the animal randomly to a startle stimulus either isolated or preceded by the low intensity stimulus. PPI was calculated as a percentage reduction in the level of startle in the presence of the prestimulus compared to that without the acoustic prestimulus. Rats weighing approx. 250 g were used, which were treated intraperitoneally (i.p.) with the products under investigation 15 minutes prior to subcutaneous (s.c.) administration of 3 mg/kg of PCP and 30 minutes before the beginning of the experiment.

[2] = test system: PCP-induced depression (swimming test); assay: Reversion of PCP-induced depression in the mouse swimming test; assay type: in vivo
Excerpt: An animal model of depression (which may be considered as a negative symptom of schizophrenia) was then used to study the activity of neboglamine on the PCP-induced depressive effects in the mouse using the swimming test according to Porsolt et al. [Arch. Int. Pharmadyn. 229, 327-336 (1977)].
The test involves inducing a state of depression in the animal, which is forced to swim in a glass cylinder from which it cannot escape. The state of depression was accentuated by 14 days' pre-treatment with a daily 10 mg/kg (s.c.) injection of PCP. On the 15th day, the animals were additionally pretreated (i.p.) with physiological solution or neboglamine 30 minutes before the beginning of the test. The duration of immobility (sign of depression) in seconds was evaluated during the experiment of an overall duration of 360 seconds. The results obtained in this manner, calculated between the 3rd and 6th minute of the experiment, i.e. for a period of […], are shown in Table 2.

[3] = test system: NMDA-evoked 3H-dopamine release in slices of rat prefrontal cortex; assay: PCP-induced blocking of NMDA-evoked 3H-dopamine release in slices of rat frontal cortex; assay type: cell-based
Description: Neboglamine's ability to reverse the effect of PCP at a neuronal level was also evaluated in an in vitro test carried out on slices of rat frontal cortex.
The method involved preparing 0.4 mm thick cortical slices, incubating them for 20 minutes with ^3H-dopamine in physiological solution in the presence of 0.1 μM 6-nitroquipazine and 0.1 μM nisoxetine (selective serotonin and noradrenaline reuptake inhibitors), aerated with 95% O2+5% CO2 at 37° C., which, after appropriate washing with artificial cerebrospinal fluid (aCSF), were superperfused for 30 minutes with aCFS at a rate of 1 ml/minute to equilibrate the system. Then, PCP and neboglamine were added at the stated concentrations to the perfusion liquid for the entire duration of the experiment, while, after 45 minutes, NMDA (100 μM) stimulation was provided for 5 minutes. Another four 5 minute fractions of eluate were then collected and their radioactivity determined.
The effect of the drugs was evaluated by calculating the ratio between the percentage radioactivity present in the effluent fraction corresponding to the maximum effect and that in the first effluent fraction collected.

[4] = test system: hippocampal ischaemia by bilateral occlusion of the carotid arteries; assay: Ischaemia induced in the gerbil by bilateral occlusion of the carotid arteries (hippocampal neuroprotection); assay type: in vivo; conditions: for area (mm2): mean ± SD; for % mortality: ischaemia group 28.57
Description: It was accordingly decided to investigate the possible neuroprotective effects of neboglamine and CR 2863 on a model of hippocampal ischaemia brought about in the gerbil by bilateral occlusion of the carotid arteries.
In brief, halothane-anaesthetised animals are subjected to bilateral occlusion of the carotid arteries for 5 minutes. After 7 days, the animals are sacrificed, the brain is removed, deep frozen and 10 μm sections from the hippocampal area are prepared which are stained with cresyl violet. A quantitative determination (in mm^2) of the area occupied by […] pyramidal neurons is then performed by means of an image analyser. The type of hippocampal neurodegeneration arising from this model of ischaemia involves a significant reduction in the area of the neuronal nuclei. The drugs were administered intraperitoneally (i.p.) 1 h before the ischaemia.

c1ccc(C2(N3CCCCC3)CCCCC2)cc1 [PCP, Phenylcyclidine]
PPI (% inhibition) ([1]; rat, PCP only group, 3 mg/kg s.c., control 55%): 20% | increase of duration of immobility relative to untreated control group ([2]; 2 weeks' chronic PCP): approx. 3 times | Immobility ([2]; PCP only group, 14 days 10 mg/kg s.c. daily, control 48): 130 s | % increase in NMDA-evoked 3H-dopamine release ([3]; NMDA 100 μM + PCP 0.1 μM): 64%

CC1(C)CCC(N)CC1 [CR 2863, 4,4-dimethylcyclohexylamine]
times less active than the parent (neboglamine) ([1]; rat PPI model): approx. 3 times | PPI (% inhibition) ([1]; rat, drug 10 mg/kg i.p. 15 min before PCP 3 mg/kg s.c., n=10): 38* % | % inhibition by PCP ([1]; rat, drug 10 mg/kg i.p. + PCP, calculated by formula): 51.4% | % protection ([4]; 4 mg/kg i.p.): 24.88% | area (mm2) ([4]; 4 mg/kg i.p. 1 h before ischaemia, sham 22.39, ischaemia 5.55): 9.74 ± 0.9*^+ mm2 | % mortality ([4]; 4 mg/kg i.p.): 11.11% | % protection ([4]; 8 mg/kg i.p.): 39.25% | area (mm2) ([4]; 8 mg/kg i.p. 1 h before ischaemia): 12.16 ± 5.49 mm2 | % mortality ([4]; 8 mg/kg i.p.): 5.88% | % protection ([4]; 16 mg/kg i.p.): 57.82% | area (mm2) ([4]; 16 mg/kg i.p. 1 h before ischaemia): 15.23 ± 5.49*^+ mm2

CN[C@H](CC(=O)O)C(=O)O [NMDA]
% increase in NMDA-evoked 3H-dopamine release ([3]; Control: NMDA 100 μM alone): 120%
